Data published in patent US20230086703A1, “N-(4-(5-chloropyridin-3-yl)phenyl)-2-(2-(cyclopropanesulfonamido)pyrimidin-4-yl) butanamide derivatives and related compounds as human CTPS1 inhibitors for the treatment of proliferative diseases” (Step Pharma S.A.S., priority 2019, published 2023).

What follows are compounds tested against T1, human CTPS1 (Homo sapiens, UniProt P17812) (assay: Human CTPS1 enzyme inhibition, ADP-Glo Max assay). Details: Table 12, ADP-Glo Max assay; read-out: CTPS1 (Human CTPS1 Enzyme Inhibition data grouped by potency range).
T1 construct: FLAG (with GG linker); His8 (with GG linker); purchased Proteros biostructures GmbH
T1 sequence (P17812 1-591): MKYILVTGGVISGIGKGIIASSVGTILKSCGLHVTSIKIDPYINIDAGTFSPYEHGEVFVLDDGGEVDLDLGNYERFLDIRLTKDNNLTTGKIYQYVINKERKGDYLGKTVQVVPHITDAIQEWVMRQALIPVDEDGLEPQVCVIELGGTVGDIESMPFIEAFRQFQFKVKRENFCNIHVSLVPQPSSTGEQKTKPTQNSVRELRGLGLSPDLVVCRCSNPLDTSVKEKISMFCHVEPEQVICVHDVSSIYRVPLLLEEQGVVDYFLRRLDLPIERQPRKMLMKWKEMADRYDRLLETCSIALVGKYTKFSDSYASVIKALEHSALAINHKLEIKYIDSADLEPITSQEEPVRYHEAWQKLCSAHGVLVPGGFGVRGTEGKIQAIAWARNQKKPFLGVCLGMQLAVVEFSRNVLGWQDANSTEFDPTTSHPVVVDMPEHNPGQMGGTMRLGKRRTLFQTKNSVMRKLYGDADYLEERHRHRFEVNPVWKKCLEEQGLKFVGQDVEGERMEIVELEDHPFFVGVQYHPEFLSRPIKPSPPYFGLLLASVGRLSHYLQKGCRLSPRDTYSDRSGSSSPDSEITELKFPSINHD
Assay type: biochemical
Outline: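 Enzyme preincubated with compound for 10 min at 25 °C in 50 mM Tris pH 8.0, 10 mM MgCl2, 0.01% Tween-20, 2 mM L-cysteine. ATP-to-ADP conversion detected by ADP-Glo Max luminescence after 60 min depletion and 60 min development steps. Percentage inhibition calculated per concentration.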

Structure (SMILES) | IC50 [nM]
CCOc1cncc(-c2ccc(NC(=O)C3(c4cncc(NS(=O)(=O)C5CC5)n4)CCN(S(C)(=O)=O)CC3)nc2)n1 [P314] | < 100
CS(=O)(=O)N1CCC(C(=O)Nc2ccc(-c3cncc(C4CC4)n3)cn2)(c2nccc(NS(=O)(=O)C3CC3)n2)CC1 [P315] | < 100
CCS(=O)(=O)N1CCC(C(=O)Nc2ccc(-c3cncc(C4CC4)n3)cn2)(c2nccc(NS(=O)(=O)C3CC3)n2)CC1 [P317] | < 100
CCOc1cncc(-c2ccc(NC(=O)C3(c4nccc(NS(=O)(=O)C5CC5)n4)CCN(S(=O)(=O)CC)CC3)nc2)n1 [P318] | < 100

Continued, values first:

IC50 [nM] | Structure (SMILES)
< 100 | CCOc1cncc(-c2ccc(NC(=O)C3(c4ccnc(NS(=O)(=O)C5CC5)n4)CCC(N(C)CCOC)CC3)nc2)n1 (stereo not drawn) [P308]
100 to 1000 | CCOc1cncc(-c2ccc(NC(=O)C3(c4ccnc(NS(=O)(=O)C5CC5)n4)CCC(N(C)CCOC)CC3)nc2)n1 (stereo not drawn) [P309]
< 100 | CCOc1cncc(-c2ccc(NC(=O)C3(c4ccnc(NS(=O)(=O)C5CC5)n4)CCC(N4CCN(C)CC4)CC3)nc2)n1 (stereo not drawn) [P312]
< 100 | COC1CCC(C(=O)Nc2ccc(-c3cncc(C4CC4)n3)cn2)(c2ccnc(NS(=O)(=O)C3CC3)n2)CC1 (stereo not drawn) [P313]
< 100 | CCOc1cncc(-c2ccc(NC(=O)C3(c4nccc(NS(=O)(=O)C5CC5)n4)CCN(S(C)(=O)=O)CC3)nc2)n1 [P316]

What follows are compounds tested against T1, human CTPS1 (assay: RapidFire/MS-based enzyme selectivity assay (human CTPS1 versus CTPS2), CTPS1 isoform). Details: RapidFire/MS IC50 values of CTPS1 and CTPS2; Table 17.
Assay type: biochemical
Outline: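 Full-length C-terminal FLAG-His-tagged CTPS1 (1-591) was preincubated 10 min at 25 °C with compound in HEPES pH 8.0 buffer with MgCl2, KCl, DTT and Tween-20. Reactions were started with a 2× mix of ATP 0.3 mM, UTP 0.2 mM, GTP 0.07 mM and L-glutamine 0.1 mM, and run in the linear phase at 25 °C. IC50 comes from the RapidFire-MS ratio of CTP to 13C9-15N3-CTP.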

Structure (SMILES) | Selectivity (fold selectivity between CTPS1 and CTPS2)
CCOc1cncc(-c2ccc(NC(=O)C3(c4cncc(NS(=O)(=O)C5CC5)n4)CCN(S(C)(=O)=O)CC3)nc2)n1 [P314] | +++ (>60 fold (+++))
CS(=O)(=O)N1CCC(C(=O)Nc2ccc(-c3cncc(C4CC4)n3)cn2)(c2nccc(NS(=O)(=O)C3CC3)n2)CC1 [P315] | +++ (>60 fold (+++))
CCS(=O)(=O)N1CCC(C(=O)Nc2ccc(-c3cncc(C4CC4)n3)cn2)(c2nccc(NS(=O)(=O)C3CC3)n2)CC1 [P317] | +++ (>60 fold (+++))
CCOc1cncc(-c2ccc(NC(=O)C3(c4nccc(NS(=O)(=O)C5CC5)n4)CCN(S(=O)(=O)CC)CC3)nc2)n1 [P318] | +++ (>60 fold (+++))

Further lines, results first:

Selectivity (fold selectivity between CTPS1 and CTPS2) | Structure (SMILES)
+++ (>60 fold (+++)) | CCOc1cncc(-c2ccc(NC(=O)C3(c4ccnc(NS(=O)(=O)C5CC5)n4)CCC(N(C)CCOC)CC3)nc2)n1 (stereo not drawn) [P308]
+++ (>60 fold (+++)) | CCOc1cncc(-c2ccc(NC(=O)C3(c4ccnc(NS(=O)(=O)C5CC5)n4)CCC(N(C)CCOC)CC3)nc2)n1 (stereo not drawn) [P309]
+++ (>60 fold (+++)) | CCOc1cncc(-c2ccc(NC(=O)C3(c4ccnc(NS(=O)(=O)C5CC5)n4)CCC(N4CCN(C)CC4)CC3)nc2)n1 (stereo not drawn) [P312]
+++ (>60 fold (+++)) | COC1CCC(C(=O)Nc2ccc(-c3cncc(C4CC4)n3)cn2)(c2ccnc(NS(=O)(=O)C3CC3)n2)CC1 (stereo not drawn) [P313]
+++ (>60 fold (+++)) | CCOc1cncc(-c2ccc(NC(=O)C3(c4nccc(NS(=O)(=O)C5CC5)n4)CCN(S(C)(=O)=O)CC3)nc2)n1 [P316]
